For assay [1], the target named is T1, Amyloid-beta precursor protein (Homo sapiens, UniProt P05067). The assay is described as follows: Binding affinity to amyloid beta (1 to 42) (unknown origin) assessed as binding constant K(off) by SPR analysis. For orientation: Surface plasmon resonance follows binding to a sensor surface in real time, without labels.
For assay [2], the target named is T1, Amyloid-beta precursor protein. The assay is described as follows: Binding affinity to amyloid beta (1 to 42) (unknown origin) assessed as binding constant K(on) by SPR analysis.
Assay [3] has the same target. The assay is described as follows: Binding affinity to amyloid beta (1 to 42) (unknown origin) assessed as dissociation constant by SPR analysis.
In assay [4] the test system is MDA-MB-468. The assay is described as follows: Induction of amyloid beta (1 to 42) degradation in lysosome of human MDA-MB-468 cells assessed as decrease in fluorescence signal at 1 uM incubated for 48 to 72 hrs by FITC based flow cytometry analysis. Type of assay: subcellular. The note with it: time 48-72 hrs.
Assay [5] deals with MDA-MB-468. The assay is described as follows: Protection against amyloid beta-induced cytotoxicity in human MDA-MB-468 cells at 0.5 uM by MTT assay. Type of assay: functional, cell-based. For orientation: Tetrazolium assays rely on reduction of a dye to a coloured formazan, in cell work by metabolically active cells.

From ChEMBL document CHEMBL6182927, “Heparan Sulfate-Based Neoproteoglycan for Targeted Lysosomal Degradation of Amyloid-β” (J Med Chem, 2025) come the findings set out here.

The source made the active and inactive calls. No cut-off for these calls is given here.

The Kd is a measure of binding affinity in units of concentration.

T1 sequence (P05067 whole entry): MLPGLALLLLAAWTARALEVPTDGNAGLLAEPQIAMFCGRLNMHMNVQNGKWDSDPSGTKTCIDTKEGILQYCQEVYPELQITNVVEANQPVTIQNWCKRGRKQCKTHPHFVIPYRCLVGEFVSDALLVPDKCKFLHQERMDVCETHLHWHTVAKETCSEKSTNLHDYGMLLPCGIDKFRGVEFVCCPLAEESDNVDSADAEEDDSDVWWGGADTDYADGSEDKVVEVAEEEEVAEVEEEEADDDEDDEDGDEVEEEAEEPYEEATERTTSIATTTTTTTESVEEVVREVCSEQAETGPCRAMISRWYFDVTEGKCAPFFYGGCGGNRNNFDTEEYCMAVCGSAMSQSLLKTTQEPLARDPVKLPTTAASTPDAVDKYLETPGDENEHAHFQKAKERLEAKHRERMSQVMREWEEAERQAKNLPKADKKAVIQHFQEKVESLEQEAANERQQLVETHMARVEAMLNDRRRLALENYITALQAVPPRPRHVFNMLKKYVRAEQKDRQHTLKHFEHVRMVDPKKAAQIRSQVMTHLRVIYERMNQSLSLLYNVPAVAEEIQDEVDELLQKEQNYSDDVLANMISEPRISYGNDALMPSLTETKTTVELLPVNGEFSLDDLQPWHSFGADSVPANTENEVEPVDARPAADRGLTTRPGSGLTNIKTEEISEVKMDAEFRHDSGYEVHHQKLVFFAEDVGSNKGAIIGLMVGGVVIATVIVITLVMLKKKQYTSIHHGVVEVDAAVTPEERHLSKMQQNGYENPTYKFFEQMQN

For the molecule `NCCOCCO[C@@H]1O[C@@H](COS(=O)(=O)O)[C@@H](O[C@@H]2O[C@@H](COS(=O)(=O)O)[C@@H](O[C@@H]3O[C@@H](COS(=O)(=O)O)[C@@H](O[C@@H]4O[C@@H](COS(=O)(=O)O)[C@@H](OS(=O)(=O)O)[C@H](O)[C@H]4OS(=O)(=O)O)[C@H](O)[C@H]3OS(=O)(=O)O)[C@H](O)[C@H]2OS(=O)(=O)O)[C@H](O)[C@H]1OS(=O)(=O)O`, the figures for the K in assay [1] and in assay [2] were 2.21 10^-2/s and 2.45 10^5/Ms, respectively. Also, the Kd in assay [3] was found to be 90.2 nM.

For the molecule `NCCCO[C@@H]1O[C@@H](C(=O)O)[C@@H](O[C@H]2O[C@H](COS(=O)(=O)O)[C@@H](O[C@@H]3O[C@@H](C(=O)O)[C@@H](O[C@H]4O[C@H](COS(=O)(=O)O)[C@@H](O[C@@H]5O[C@@H](C(=O)O)[C@@H](O[C@H]6O[C@H](COS(=O)(=O)O)[C@@H](O)[C@H](O)[C@H]6NS(=O)(=O)O)[C@H](O)[C@H]5OS(=O)(=O)O)[C@H](O)[C@H]4NS(=O)(=O)O)[C@H](O)[C@H]3OS(=O)(=O)O)[C@H](O)[C@H]2NS(=O)(=O)O)[C@H](O)[C@H]1OS(=O)(=O)O`, the K in assay [1] is 2.23 10^-2/s; in assay [2] it was 2.47 10^5/Ms. The Kd in assay [3] was 90.3 nM.

In the case of `CC(C)CCC[C@@H](C)[C@H]1CC[C@H]2[C@@H]3CC=C4C[C@@H](OCCC(=O)NCCOCCOCCNC(=O)CCC(=O)N5Cc6ccccc6-c6c(nnn6CCC[C@H](NC(=O)[C@H](CCCCNC(=O)CCn6nnc7c6-c6ccccc6CN(C(=O)CCC(=O)NCCCO[C@@H]6O[C@@H](C(=O)O)[C@@H](O[C@H]8O[C@H](COS(=O)(=O)O)[C@@H](O[C@@H]9O[C@@H](C(=O)O)[C@@H](O[C@H]%10O[C@H](COS(=O)(=O)O)[C@@H](O[C@@H]%11O[C@@H](C(=O)O)[C@@H](O[C@H]%12O[C@H](COS(=O)(=O)O)[C@@H](O)[C@H](O)[C@H]%12NS(=O)(=O)O)[C@H](O)[C@H]%11OS(=O)(=O)O)[C@H](O)[C@H]%10NS(=O)(=O)O)[C@H](O)[C@H]9OS(=O)(=O)O)[C@H](O)[C@H]8NS(=O)(=O)O)[C@H](O)[C@H]6OS(=O)(=O)O)c6ccccc6-7)NC(=O)[C@H](CCCCNC(=O)CCn6nnc7c6-c6ccccc6CN(C(=O)CCC(=O)NCCCO[C@@H]6O[C@@H](C(=O)O)[C@@H](O[C@H]8O[C@H](COS(=O)(=O)O)[C@@H](O[C@@H]9O[C@@H](C(=O)O)[C@@H](O[C@H]%10O[C@H](COS(=O)(=O)O)[C@@H](O[C@@H]%11O[C@@H](C(=O)O)[C@@H](O[C@H]%12O[C@H](COS(=O)(=O)O)[C@@H](O)[C@H](O)[C@H]%12NS(=O)(=O)O)[C@H](O)[C@H]%11OS(=O)(=O)O)[C@H](O)[C@H]%10NS(=O)(=O)O)[C@H](O)[C@H]9OS(=O)(=O)O)[C@H](O)[C@H]8NS(=O)(=O)O)[C@H](O)[C@H]6OS(=O)(=O)O)c6ccccc6-7)NC(=O)[C@H](CCCCNC(=O)CCn6nnc7c6-c6ccccc6CN(C(=O)CCC(=O)NCCCO[C@@H]6O[C@@H](C(=O)O)[C@@H](O[C@H]8O[C@H](COS(=O)(=O)O)[C@@H](O[C@@H]9O[C@@H](C(=O)O)[C@@H](O[C@H]%10O[C@H](COS(=O)(=O)O)[C@@H](O[C@@H]%11O[C@@H](C(=O)O)[C@@H](O[C@H]%12O[C@H](COS(=O)(=O)O)[C@@H](O)[C@H](O)[C@H]%12NS(=O)(=O)O)[C@H](O)[C@H]%11OS(=O)(=O)O)[C@H](O)[C@H]%10NS(=O)(=O)O)[C@H](O)[C@H]9OS(=O)(=O)O)[C@H](O)[C@H]8NS(=O)(=O)O)[C@H](O)[C@H]6OS(=O)(=O)O)c6ccccc6-7)NC(=O)[C@H](CCCCNC(=O)CCn6nnc7c6-c6ccccc6CN(C(=O)CCC(=O)NCCCO[C@@H]6O[C@@H](C(=O)O)[C@@H](O[C@H]8O[C@H](COS(=O)(=O)O)[C@@H](O[C@@H]9O[C@@H](C(=O)O)[C@@H](O[C@H]%10O[C@H](COS(=O)(=O)O)[C@@H](O[C@@H]%11O[C@@H](C(=O)O)[C@@H](O[C@H]%12O[C@H](COS(=O)(=O)O)[C@@H](O)[C@H](O)[C@H]%12NS(=O)(=O)O)[C@H](O)[C@H]%11OS(=O)(=O)O)[C@H](O)[C@H]%10NS(=O)(=O)O)[C@H](O)[C@H]9OS(=O)(=O)O)[C@H](O)[C@H]8NS(=O)(=O)O)[C@H](O)[C@H]6OS(=O)(=O)O)c6ccccc6-7)NC(=O)[C@H](CCCCNC(=O)CCn6nnc7c6-c6ccccc6CN(C(=O)CCC(=O)NCCCO[C@@H]6O[C@@H](C(=O)O)[C@@H](O[C@H]8O[C@H](COS(=O)(=O)O)[C@@H](O[C@@H]9O[C@@H](C(=O)O)[C@@H](O[C@H]%10O[C@H](COS(=O)(=O)O)[C@@H](O[C@@H]%11O[C@@H](C(=O)O)[C@@H](O[C@H]%12O[C@H](COS(=O)(=O)O)[C@@H](O)[C@H](O)[C@H]%12NS(=O)(=O)O)[C@H](O)[C@H]%11OS(=O)(=O)O)[C@H](O)[C@H]%10NS(=O)(=O)O)[C@H](O)[C@H]9OS(=O)(=O)O)[C@H](O)[C@H]8NS(=O)(=O)O)[C@H](O)[C@H]6OS(=O)(=O)O)c6ccccc6-7)NC(=O)[C@H](C)NC(=O)CCCCC[N+]6=C(/C=C/C=C/C=C7\N(C)c8ccccc8C7(C)C)C(C)(C)c7ccccc76)C(N)=O)-c6ccccc65)CC[C@]4(C)[C@H]3CC[C@]12C`, the result with MDA-MB-468 [4] and in the assay on MDA-MB-468 [5] was Active.
